From patent publication EP0148440A1, “1,3,4,5-Tetrahydrobenzo(c,d)indoles, process for their preparation and their uses” (Troponwerke GmbH & Co. KG, priority 1983, dated 1985)

Target: T1, 5-HT2 (Rattus norvegicus, UniProt P14842)
T1 construct: Präfrontaler Cortex-Ratte; from tissue; host or cells: rat prefrontal cortex membranes
Experiment: Affinity to serotonin receptors: 5-HT2, displacement of ^3H-Ketanserin
Assay type: binding
Conditions: Präfrontaler Cortex-Ratte membranes, read-out: Inhibitionskonstante Ki

T1 sequence (P14842 whole entry): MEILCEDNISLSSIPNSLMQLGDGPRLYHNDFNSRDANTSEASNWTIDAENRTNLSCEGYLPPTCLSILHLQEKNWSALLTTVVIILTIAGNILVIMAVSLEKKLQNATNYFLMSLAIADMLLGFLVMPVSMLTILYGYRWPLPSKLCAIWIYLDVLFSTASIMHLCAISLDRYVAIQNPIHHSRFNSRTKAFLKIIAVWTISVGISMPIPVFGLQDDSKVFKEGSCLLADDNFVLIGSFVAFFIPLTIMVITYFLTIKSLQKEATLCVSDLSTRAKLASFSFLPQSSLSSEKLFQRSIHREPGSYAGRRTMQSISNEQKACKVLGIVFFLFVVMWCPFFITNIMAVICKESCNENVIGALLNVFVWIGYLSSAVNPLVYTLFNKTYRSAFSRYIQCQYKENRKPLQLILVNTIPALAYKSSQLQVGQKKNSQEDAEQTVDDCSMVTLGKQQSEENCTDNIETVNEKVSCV

CCCN(CCC)C1Cc2c[nH]c3ccc(OC)c(c23)C1 (stereo not shown) [Beispiel 1, 6-Methoxy-4-dipropylamino-1,3,4,5-tetrahydrobenz[c,d]-indol]
Ki: 1800 nM
